Data as given in patent US20060198925A1, “Food preservative” (priority 2003, published 2006).

Key:
yeast = experiment: Final proofing time of dough containing the additive; assay type: cell-based; settings: 6.5 grams additive in dough; final proofing at 40° C. and relative humidity of 80%; time of rising to a specific maximum volume
Method: Then a dough comprising the following ingredients was prepared: [table] Then a further additive was mixed with the above-mentioned dough: The four above-mentioned doughs were mixed for half a minute at slow speed in a McDuffy mixer and then for 8.5 minutes at high speed in the same mixer. The dough temperature was 26° C. The resting time was 2 minutes (at room temperature). After said resting time 420 grams of each dough was taken, and the doughs (each of 420 grams) were then rounded up softly by hand. The initial proofing time was 6 minutes (at room temperature), after which the doughs were moulded into a certain baking form. The final proofing time (at 40° C. and a relative humidity of 80%) was determined, which appeared to be dependent on the type of further additive as contained in the four above-mentioned doughs. With “final proofing time” it is herein meant the time period of rising the dough, before baking, to a certain extent being a specific maximum volume. After this final proofing the doughs were baked for 20 minutes in an oven at 210° C. (top oven temperature) and at 230° C. (bottom oven temperature). The four bread products as obtained were then stored at room temperature (and at a relative humidity of 80%). During 1 month it was determined by means of visual observation whether or not moulds were formed on the four bread products.

moulds = experiment: Mould formation on stored bread product (visual observation); assay type: cell-based; settings: bread stored at room temperature, relative humidity of 80%, visual observation during 1 month
Method: The four above-mentioned doughs were mixed for half a minute at slow speed in a McDuffy mixer and then for 8.5 minutes at high speed in the same mixer. The dough temperature was 26° C. The resting time was 2 minutes (at room temperature). After said resting time 420 grams of each dough was taken, and the doughs (each of 420 grams) were then rounded up softly by hand. The initial proofing time was 6 minutes (at room temperature), after which the doughs were moulded into a certain baking form. The final proofing time (at 40° C. and a relative humidity of 80%) was determined, which appeared to be dependent on the type of further additive as contained in the four above-mentioned doughs. With “final proofing time” it is herein meant the time period of rising the dough, before baking, to a certain extent being a specific maximum volume. After this final proofing the doughs were baked for 20 minutes in an oven at 210° C. (top oven temperature) and at 230° C. (bottom oven temperature). The four bread products as obtained were then stored at room temperature (and at a relative humidity of 80%). During 1 month it was determined by means of visual observation whether or not moulds were formed on the four bread products.

With `CCC(=O)[O-].CCC(=O)[O-].[Ca+2]` [Comparative, calcium propionate] as the molecule, how does the “Final proofing time of dough” value (yeast) read?
Its value is 90 min.

What about the “Mould formation on bread product” value (moulds) of the same molecule?
The value was “no”.
